According to the NIST ThermoML archive (doi:10.1021/je034153o):
Where “and” joins values, the source holds several entries; their conditions need not be identical. Equal values may be shown once. ± gives the expanded uncertainty stated by the source.

Conditions: 303.15 K; Liquid; Closed cell (Static) method

SMILES | vapor or sublimation pressure
ClCCl [dichloromethane] | 70.49 ± 0.27 kPa
ClC(Cl)Cl [trichloromethane] | 32.41 ± 0.13 kPa
ClC(Cl)(Cl)Cl [tetrachloromethane] | 18.83 ± 0.083 kPa
CCOCCO [2-ethoxyethan-1-ol] | 0.981 ± 0.017 kPa and 0.984 ± 0.017 kPa and 0.968 ± 0.017 kPa
